In patent US10556888B2, “Pyrazole compounds or salts thereof, preparation methods therefor, herbicidal compositions and use thereof” (QINGDAO KINGAGROOT CHEMICAL COMPOUNDS CO., LTD, priority 2015, dated 2020):

Experiments:
[1] = system: main crop (wheat, corn, rice, soybean, cotton, oilseed, millet and sorghum); assay: Post-emergence test experiment, main crops (Table 2); type: in vivo; parameters: key: Level 10: completely dead; Level 9: above 90% growth inhibition rate; Level 8: above 80% growth inhibition rate; Level 7: above 70% growth inhibition rate; Level 6: above 60% growth inhibition rate; Level 5: above 50% growth inhibition rate; Level 4: above 30% growth inhibition rate; Level 3: above 20% growth inhibition rate; Level 2: above 10% growth inhibition rate; Level 1: above 1-10% growth inhibition rate; Level 0: no effect; conditions: 3 weeks after spraying, greenhouse
Description: (§1) Post-emergence test experiment: Monocotyledonous and dicotyledonous weed seeds and main crop seeds (i.e. wheat, corn, rice, soybean, cotton, oilseed, millet and sorghum.) were put into a plastic pot loaded with soil. Then covered with 0.5-2 cm soil, the seeds were allowed to grow in good greenhouse environment. The test plants were treated at 2-3 leaf stage 2-3 weeks after sowing. The test compounds of the invention were dissolved with acetone respectively, then added with 80 tween and diluted by certain amount of water to certain concentration. The solution was sprayed to the plants with a sprayer. Then the plants were cultured for 3 weeks in the greenhouse.

[2] = system: Monocotyledonous and dicotyledonous weed; assay: Post-emergence test experiment, weed control effect (Table 2); type: in vivo; parameters: key to weed control effect, Setaria viridis (level) / weed control effect, Rorippa indica (level) / weed control effect, Abutilon theophrasti (level) / weed control effect, Echinochloa crus-galli (level) / weed control effect, Digitaria sanguinalis (level): Level 10: completely dead; Level 9: above 90% growth inhibition rate; Level 8: above 80% growth inhibition rate; Level 7: above 70% growth inhibition rate; Level 6: above 60% growth inhibition rate; Level 5: above 50% growth inhibition rate; Level 4: above 30% growth inhibition rate; Level 3: above 20% growth inhibition rate; Level 2: above 10% growth inhibition rate; Level 1: above 1-10% growth inhibition rate; Level 0: no effect; conditions: 3 weeks after spraying, greenhouse
Description: as §1

COCCOCc1c(S(C)(=O)=O)ccc(C(=O)c2c(C)nn(C)c2OC(=O)c2cn(C)nc2C)c1Cl [Compound 28]
effect on crop, corn (level) ([1]; 30 g/ha): 0 | effect on crop, rice (level) ([1]; 30 g/ha): 6 (Level 6: above 60% growth inhibition rate) | effect on crop, wheat (level) ([1]; 30 g/ha): 0 | weed control effect, Abutilon theophrasti (level) ([2]; 30 g/ha): 7 (Level 7: above 70% growth inhibition rate) | weed control effect, Bidens pilosa (level) ([2]; 30 g/ha): 7 (Level 7: above 70% growth inhibition rate) | weed control effect, Digitaria sanguinalis (level) ([2]; 30 g/ha): 7 (Level 7: above 70% growth inhibition rate) | weed control effect, Echinochloa crus-galli (level) ([2]; 30 g/ha): 9 (Level 9: above 90% growth inhibition rate) | weed control effect, Rorippa indica (level) ([2]; 30 g/ha): 5 (Level 5: above 50% growth inhibition rate) | weed control effect, Setaria viridis (level) ([2]; 30 g/ha): 5 (Level 5: above 50% growth inhibition rate)

CCc1nn(C)c(OC(=O)c2cn(C)nc2C)c1C(=O)c1ccc(S(C)(=O)=O)c(Cn2nc(C)cc2C)c1Cl [Compound 30]
effect on crop, corn (level) ([1]; 120 g/ha): 0 | effect on crop, rice (level) ([1]; 120 g/ha): 0 | effect on crop, wheat (level) ([1]; 120 g/ha): 0 | weed control effect, Abutilon theophrasti (level) ([2]; 120 g/ha): 6 (Level 6: above 60% growth inhibition rate) | weed control effect, Bidens pilosa (level) ([2]; 120 g/ha): 6 (Level 6: above 60% growth inhibition rate) | weed control effect, Digitaria sanguinalis (level) ([2]; 120 g/ha): 4 (Level 4: above 30% growth inhibition rate) | weed control effect, Echinochloa crus-galli (level) ([2]; 120 g/ha): 8 (Level 8: above 80% growth inhibition rate) | weed control effect, Rorippa indica (level) ([2]; 120 g/ha): 4 (Level 4: above 30% growth inhibition rate) | weed control effect, Setaria viridis (level) ([2]; 120 g/ha): 10

CCOCc1c(S(C)(=O)=O)ccc(C(=O)c2c(CC)nn(C)c2OC(=O)c2cn(C)nc2C)c1Cl [Compound 31]
effect on crop, corn (level) ([1]; 30 g/ha): 0 | effect on crop, rice (level) ([1]; 30 g/ha): 5 (Level 5: above 50% growth inhibition rate) | effect on crop, wheat (level) ([1]; 30 g/ha): 0 | weed control effect, Abutilon theophrasti (level) ([2]; 30 g/ha): 7 (Level 7: above 70% growth inhibition rate) | weed control effect, Bidens pilosa (level) ([2]; 30 g/ha): 7 (Level 7: above 70% growth inhibition rate) | weed control effect, Digitaria sanguinalis (level) ([2]; 30 g/ha): 10 | weed control effect, Echinochloa crus-galli (level) ([2]; 30 g/ha): 10 | weed control effect, Rorippa indica (level) ([2]; 30 g/ha): 5 (Level 5: above 50% growth inhibition rate) | weed control effect, Setaria viridis (level) ([2]; 30 g/ha): 9 (Level 9: above 90% growth inhibition rate)

CCc1nn(C)c(OC(=O)c2cn(C)nc2C)c1C(=O)c1ccc(S(C)(=O)=O)c(COCC(F)(F)F)c1Cl [Compound 32]
effect on crop, corn (level) ([1]; 30 g/ha): 1 (Level 1: above 1-10% growth inhibition rate) | effect on crop, rice (level) ([1]; 30 g/ha): 5 (Level 5: above 50% growth inhibition rate) | effect on crop, wheat (level) ([1]; 30 g/ha): 0 | weed control effect, Abutilon theophrasti (level) ([2]; 30 g/ha): 7 (Level 7: above 70% growth inhibition rate) | weed control effect, Bidens pilosa (level) ([2]; 30 g/ha): 7 (Level 7: above 70% growth inhibition rate) | weed control effect, Digitaria sanguinalis (level) ([2]; 30 g/ha): 10 | weed control effect, Echinochloa crus-galli (level) ([2]; 30 g/ha): 10 | weed control effect, Rorippa indica (level) ([2]; 30 g/ha): 5 (Level 5: above 50% growth inhibition rate) | weed control effect, Setaria viridis (level) ([2]; 30 g/ha): 10

C#CCOCc1c(S(C)(=O)=O)ccc(C(=O)c2c(C)nn(C)c2OC(=O)c2cn(C)nc2C)c1Cl [Compound 33]
effect on crop, corn (level) ([1]; 30 g/ha): 1 (Level 1: above 1-10% growth inhibition rate) | effect on crop, rice (level) ([1]; 30 g/ha): 5 (Level 5: above 50% growth inhibition rate) | effect on crop, wheat (level) ([1]; 30 g/ha): 0 | weed control effect, Abutilon theophrasti (level) ([2]; 30 g/ha): 7 (Level 7: above 70% growth inhibition rate) | weed control effect, Bidens pilosa (level) ([2]; 30 g/ha): 7 (Level 7: above 70% growth inhibition rate) | weed control effect, Digitaria sanguinalis (level) ([2]; 30 g/ha): 9 (Level 9: above 90% growth inhibition rate) | weed control effect, Echinochloa crus-galli (level) ([2]; 30 g/ha): 9 (Level 9: above 90% growth inhibition rate) | weed control effect, Rorippa indica (level) ([2]; 30 g/ha): 5 (Level 5: above 50% growth inhibition rate) | weed control effect, Setaria viridis (level) ([2]; 30 g/ha): 9 (Level 9: above 90% growth inhibition rate)

CCCCOCc1c(S(C)(=O)=O)ccc(C(=O)c2c(C)nn(C)c2OC(=O)c2cn(C)nc2C)c1Cl [Compound 34]
effect on crop, corn (level) ([1]; 60 g/ha): 0 | effect on crop, rice (level) ([1]; 60 g/ha): 1 (Level 1: above 1-10% growth inhibition rate) | effect on crop, wheat (level) ([1]; 60 g/ha): 0 | weed control effect, Abutilon theophrasti (level) ([2]; 60 g/ha): 10 | weed control effect, Bidens pilosa (level) ([2]; 60 g/ha): 8 (Level 8: above 80% growth inhibition rate) | weed control effect, Digitaria sanguinalis (level) ([2]; 60 g/ha): 10 | weed control effect, Echinochloa crus-galli (level) ([2]; 60 g/ha): 10 | weed control effect, Rorippa indica (level) ([2]; 60 g/ha): 10 | weed control effect, Setaria viridis (level) ([2]; 60 g/ha): 8 (Level 8: above 80% growth inhibition rate)

Cc1nn(C)cc1C(=O)Oc1c(C(=O)c2ccc(S(C)(=O)=O)c(COCC(F)(F)C(F)F)c2Cl)c(C)nn1C [Compound 35]
effect on crop, corn (level) ([1]; 30 g/ha): 1 (Level 1: above 1-10% growth inhibition rate) | effect on crop, rice (level) ([1]; 30 g/ha): 5 (Level 5: above 50% growth inhibition rate) | effect on crop, wheat (level) ([1]; 30 g/ha): 0 | weed control effect, Abutilon theophrasti (level) ([2]; 30 g/ha): 7 (Level 7: above 70% growth inhibition rate) | weed control effect, Bidens pilosa (level) ([2]; 30 g/ha): 7 (Level 7: above 70% growth inhibition rate) | weed control effect, Digitaria sanguinalis (level) ([2]; 30 g/ha): 7 (Level 7: above 70% growth inhibition rate) | weed control effect, Echinochloa crus-galli (level) ([2]; 30 g/ha): 10 | weed control effect, Rorippa indica (level) ([2]; 30 g/ha): 5 (Level 5: above 50% growth inhibition rate) | weed control effect, Setaria viridis (level) ([2]; 30 g/ha): 6 (Level 6: above 60% growth inhibition rate)

COCCCOCc1c(S(C)(=O)=O)ccc(C(=O)c2c(C)nn(C)c2OC(=O)c2cn(C)nc2C)c1Cl [Compound 37]
effect on crop, corn (level) ([1]; 60 g/ha): 0 | effect on crop, rice (level) ([1]; 60 g/ha): 1 (Level 1: above 1-10% growth inhibition rate) | effect on crop, wheat (level) ([1]; 60 g/ha): 0 | weed control effect, Abutilon theophrasti (level) ([2]; 60 g/ha): 10 | weed control effect, Bidens pilosa (level) ([2]; 60 g/ha): 8 (Level 8: above 80% growth inhibition rate) | weed control effect, Digitaria sanguinalis (level) ([2]; 60 g/ha): 10 | weed control effect, Echinochloa crus-galli (level) ([2]; 60 g/ha): 9 (Level 9: above 90% growth inhibition rate) | weed control effect, Rorippa indica (level) ([2]; 60 g/ha): 10 | weed control effect, Setaria viridis (level) ([2]; 60 g/ha): 5 (Level 5: above 50% growth inhibition rate)

CC=CCOCc1c(S(C)(=O)=O)ccc(C(=O)c2c(C)nn(C)c2OC(=O)c2cn(C)nc2C)c1Cl [Compound 38]
effect on crop, corn (level) ([1]; 60 g/ha): 0 | effect on crop, rice (level) ([1]; 60 g/ha): 1 (Level 1: above 1-10% growth inhibition rate) | effect on crop, wheat (level) ([1]; 60 g/ha): 0 | weed control effect, Abutilon theophrasti (level) ([2]; 60 g/ha): 10 | weed control effect, Bidens pilosa (level) ([2]; 60 g/ha): 8 (Level 8: above 80% growth inhibition rate) | weed control effect, Digitaria sanguinalis (level) ([2]; 60 g/ha): 8 (Level 8: above 80% growth inhibition rate) | weed control effect, Echinochloa crus-galli (level) ([2]; 60 g/ha): 8 (Level 8: above 80% growth inhibition rate) | weed control effect, Rorippa indica (level) ([2]; 60 g/ha): 10 | weed control effect, Setaria viridis (level) ([2]; 60 g/ha): 10
